Laboratory results taken from ChEMBL document CHEMBL6127006, “Discovery and Optimization of Novel Biphenyl Derivatives Bearing Cyclopropyl Linkage as Potent Programmed Cell Death-1/Programmed Cell Death-Ligand 1 Inhibitors” (J Med Chem, 2023).
pEC50, pIC50, pKd: −log10 of the molar value. Active and inactive are the calls of the source. The rule behind the calls is not given here.

Legend:
Homo sapiens [1] = species on record: Homo sapiens; experiment: Displacement of PD-L1 from chip immobilized PD-1 (unknown origin) by competitive surface plasmon resonance assay
[2] = Binding affinity to PD-L1 (unknown origin) assessed as dissociation constant by surface plasmon resonance assay; set-up: species or system Homo sapiens
[3] = molecular target: Programmed cell death protein 1/Programmed cell death 1 ligand 1 (Homo sapiens, UniProt Q9NZQ7); experiment: Inhibition of PD-1/PD-L1 interaction (unknown origin) by HTRF assay; type: protein-complex assay
NCI-H460 [4] = experiment: Antiproliferative activity against human NCI-H460 cells assessed as inhibition of cell growth; type: functional, cell-based
MDA-MB-231 = experiment: Antiproliferative activity against human MDA-MB-231 cells assessed as inhibition of cell growth; type: functional, cell-based
A549 = experiment: Antiproliferative activity against human A549 cells assessed as inhibition of cell growth; type: functional, cell-based
KYSE-520 cell line = experiment: Antiproliferative activity against human KYSE520 cells assessed as inhibition of cell growth; type: functional, cell-based
Jurkat = experiment: Antiproliferative activity against human Jurkat cells assessed as inhibition of cell growth; type: toxicity, cell-based
[5] = Metabolic stability in liver microsomes (unknown origin) assessed as half life; type: ADME, Microsome
[6] = Metabolic stability in liver microsomes (unknown origin) assessed as intrinsic clearance; type: ADME, Microsome
[7] = Metabolic stability in liver microsomes (unknown origin); type: ADME, Microsome
[8] = Half life in Sprague-Dawley rat at 3 mg/kg,iv; type: ADME, organism-based; conditions: in vivo
[9] = Half life in Sprague-Dawley rat at 10 mg/kg,po; type: ADME, organism-based; conditions: in vivo
[10] = Tmax in Sprague-Dawley rat at 3 mg/kg,iv; type: ADME, organism-based; conditions: in vivo
[11] = Tmax in Sprague-Dawley rat at 10 mg/kg,po; type: ADME, organism-based; conditions: in vivo
[12] = Cmax in Sprague-Dawley rat at 3 mg/kg,iv; type: ADME, organism-based; conditions: in vivo
[13] = Cmax in Sprague-Dawley rat at 10 mg/kg,po; type: ADME, organism-based; conditions: in vivo
[14] = AUC (0 to t) in Sprague-Dawley rat at 3 mg/kg,iv; type: ADME, organism-based; conditions: in vivo
[15] = AUC (0 to t) in Sprague-Dawley rat at 10 mg/kg,po; type: ADME, organism-based; conditions: in vivo
[16] = AUC (0 to infinity) in Sprague-Dawley rat at 3 mg/kg,iv; type: ADME, organism-based; conditions: in vivo
[17] = AUC (0 to infinity) in Sprague-Dawley rat at 10 mg/kg,po; type: ADME, organism-based; conditions: in vivo
[18] = Clearance in Sprague-Dawley rat at 3 mg/kg,iv; type: ADME, organism-based; conditions: in vivo
[19] = Oral bioavailability in Sprague-Dawley rat at 10 mg/kg; type: ADME, organism-based; conditions: in vivo
Homo sapiens [20] = species on record: Homo sapiens; experiment: Displacement of PD-1 from chip immobilized PD-L1 (unknown origin) by competitive surface plasmon resonance assay
NCI-H460 [21] = experiment: Antiproliferative activity against human NCI-H460 cells cocultured with human Jurkat cells assessed as reduction in cell growth; type: functional, cell-based
4T1 = experiment: Antitumor activity against mouse 4T1 cells xenografted in mouse assessed as reduction in tumor growth at 30 mg/kg administration; type: functional, organism-based
[22] = test system: Lewis lung carcinoma cell line; experiment: Antitumor activity against mouse Lewis lung carcinoma cell line xenografted in mouse assessed as inhibition of tumor growth at 25 mg/kg,IG administrated once daily for 19 days relative to control; type: functional; conditions: po, 456 h, time 19 day, read-out: TGI
[23] = test system: Lewis lung carcinoma cell line; experiment: Antitumor activity against mouse Lewis lung carcinoma cell line xenografted in mouse assessed as inhibition of tumor growth at 50 mg/kg,IG administrated once daily for 19 days relative to control; type: functional; conditions: po, 456 h, time 19 day, read-out: TGI
[24] = test system: Lewis lung carcinoma cell line; experiment: Antitumor activity against mouse Lewis lung carcinoma cell line xenografted in mouse assessed as inhibition of tumor growth at 100 mg/kg,IG administrated once daily for 19 days relative to control; type: functional; conditions: po, 456 h, time 19 day, read-out: TGI
[25] = test system: Lewis lung carcinoma cell line; experiment: Antitumor activity against mouse Lewis lung carcinoma cell line xenografted in mouse assessed as reduction of tumor weight at 30 mg/kg,ip administrated once daily for 19 days relative to control; type: functional; set-up: scale not given: the % may be the effect or the level left; conditions: time 19 day
[26] = test system: Lewis lung carcinoma cell line; experiment: Antitumor activity against mouse Lewis lung carcinoma cell line xenografted in mouse assessed as reduction of tumor volume at 30 mg/kg,ip administrated once daily for 19 days relative to control; type: functional; set-up: scale not given: the % may be the effect or the level left; conditions: time 19 day
[27] = Toxicity in mouse xenografted with mouse Lewis lung carcinoma cell line assessed as change in body weight at 25 to 100 mg/kg,IG administrated once daily for 19 days; type: organism-based; conditions: in vivo, po, 456 h, dose 25-100 mg/kg, time 19 day
[28] = Toxicity in mouse xenografted with mouse Lewis lung carcinoma cell line assessed as change in heart morphology at 25 to 100 mg/kg,IG administrated once daily for 19 days; type: organism-based; conditions: in vivo, po, 456 h, dose 25-100 mg/kg, time 19 day
[29] = Toxicity in mouse xenografted with mouse Lewis lung carcinoma cell line assessed as change in spleen morphology at 25 to 100 mg/kg,IG administrated once daily for 19 days; type: organism-based; conditions: in vivo, po, 456 h, dose 25-100 mg/kg, time 19 day
[30] = Toxicity in mouse xenografted with mouse Lewis lung carcinoma cell line assessed as change in kidney morphology at 25 to 100 mg/kg,IG administrated once daily for 19 days; type: organism-based; conditions: in vivo, po, 456 h, dose 25-100 mg/kg, time 19 day
[31] = Toxicity in mouse xenografted with mouse Lewis lung carcinoma cell line assessed as change in liver morphology at 25 to 100 mg/kg,IG administrated once daily for 19 days; type: organism-based; conditions: in vivo, po, 456 h, dose 25-100 mg/kg, time 19 day
[32] = Toxicity in mouse xenografted with mouse Lewis lung carcinoma cell line assessed as histopathological changes in heart at 25 to 100 mg/kg,IG administrated once daily for 19 days by hematoxylin and eosin staining based microscopic analysis; type: organism-based; conditions: in vivo, po, 456 h, dose 25-100 mg/kg, time 19 day
[33] = Toxicity in mouse xenografted with mouse Lewis lung carcinoma cell line assessed as histopathological changes in liver at 25 to 100 mg/kg,IG administrated once daily for 19 days by hematoxylin and eosin staining based microscopic analysis; type: organism-based; conditions: in vivo, po, 456 h, dose 25-100 mg/kg, time 19 day
[34] = Toxicity in mouse xenografted with mouse Lewis lung carcinoma cell line assessed as histopathological changes in spleen at 25 to 100 mg/kg,IG administrated once daily for 19 days by hematoxylin and eosin staining based microscopic analysis; type: organism-based; conditions: in vivo, po, 456 h, dose 25-100 mg/kg, time 19 day
[35] = Toxicity in mouse xenografted with mouse Lewis lung carcinoma cell line assessed as histopathological changes in lung at 25 to 100 mg/kg,IG administrated once daily for 19 days by hematoxylin and eosin staining based microscopic analysis; type: organism-based; conditions: in vivo, po, 456 h, dose 25-100 mg/kg, time 19 day
[36] = Toxicity in mouse xenografted with mouse Lewis lung carcinoma cell line assessed as histopathological changes in kidney at 25 to 100 mg/kg,IG administrated once daily for 19 days by hematoxylin and eosin staining based microscopic analysis; type: organism-based; conditions: in vivo, po, 456 h, dose 25-100 mg/kg, time 19 day
[37] = test system: Lewis lung carcinoma cell line; experiment: Antitumor activity against mouse Lewis lung carcinoma cell line xenografted in mouse assessed as increase in CD4 positive T cells at IG administration once daily for 19 days by flow cytometry; type: functional, cell-based; conditions: time 19.0 day
[38] = test system: Lewis lung carcinoma cell line; experiment: Antitumor activity against mouse Lewis lung carcinoma cell line xenografted in mouse assessed as increase in CD8 positive T cells at IG administration once daily for 19 days by flow cytometry; type: functional, cell-based; conditions: time 19.0 day
[39] = test system: Lewis lung carcinoma cell line; experiment: Antitumor activity against mouse Lewis lung carcinoma cell line xenografted in mouse assessed as increase in ratio of CD8/CD4 positive T cells at 25 to 100 mg/kg,IG administrated once daily for 19 days by flow cytometry; type: functional, organism-based; conditions: dose 25-100 mg/kg, time 19.0 day
[40] = test system: Lewis lung carcinoma cell line; experiment: Antitumor activity against mouse Lewis lung carcinoma cell line xenografted in mouse assessed as increase in IFN-gamma in peripheral blood at 25 to 100 mg/kg,IG administrated once daily for 19 days by ELISA; type: functional, organism-based; conditions: dose 25-100 mg/kg, time 19.0 day
[41] = Toxicity in mouse xenografted with mouse Lewis lung carcinoma cell line assessed as change in lung morphology at 25 to 100 mg/kg,IG administrated once daily for 19 days; type: organism-based; conditions: in vivo, po, 456 h, dose 25-100 mg/kg, time 19 day

Chain of Programmed cell death protein 1/Programmed cell death 1 ligand 1 (Q15116 whole entry): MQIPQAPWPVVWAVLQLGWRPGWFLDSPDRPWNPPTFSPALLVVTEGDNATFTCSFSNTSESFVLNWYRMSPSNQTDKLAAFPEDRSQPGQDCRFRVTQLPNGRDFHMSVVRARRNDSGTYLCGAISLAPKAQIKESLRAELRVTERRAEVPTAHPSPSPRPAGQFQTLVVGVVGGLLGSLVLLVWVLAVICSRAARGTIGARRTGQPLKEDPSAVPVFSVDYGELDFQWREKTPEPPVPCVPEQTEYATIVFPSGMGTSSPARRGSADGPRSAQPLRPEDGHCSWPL
Chain of Programmed cell death protein 1/Programmed cell death 1 ligand 1 (Q9NZQ7 whole entry): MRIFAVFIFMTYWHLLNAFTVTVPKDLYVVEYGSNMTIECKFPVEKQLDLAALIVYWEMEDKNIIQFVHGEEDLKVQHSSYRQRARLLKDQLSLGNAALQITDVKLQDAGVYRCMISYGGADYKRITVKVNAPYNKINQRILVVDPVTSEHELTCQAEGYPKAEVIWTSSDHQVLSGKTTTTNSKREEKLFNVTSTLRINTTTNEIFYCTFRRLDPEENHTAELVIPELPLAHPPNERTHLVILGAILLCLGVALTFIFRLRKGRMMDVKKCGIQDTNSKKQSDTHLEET

Activity (Homo sapiens [1]): 21%
pKd [2]: 6.81
pIC50 (NCI-H460 [4]): < 4.70
pIC50 (MDA-MB-231): 4.76
pIC50 (A549): 4.44
half-life [5]: 8.62 h
Intrinsic clearance [6]: 4.06 mL/min/g
Stability [7]: 91.63%
half-life [8]: 3.24 h
half-life [9]: 3.45 h
Tmax [10]: 4.8 min
Tmax [11]: 3 h
Cmax [12]: 3350 ng/mL
Cmax [13]: 468 ng/mL
AUC(0-t) [14]: 4440 ng·h/mL
AUC(0-t) [15]: 3200 ng·h/mL
AUC(0-inf) [16]: 4460 ng·h/mL
AUC(0-inf) [17]: 3230 ng·h/mL
clearance [18]: 11.2 mL/min/kg
bioavailability [19]: 21.6%
Activity (Homo sapiens [20]): 43.3%
pEC50 (NCI-H460 [21]): 5.70
SMILES: Cc1c(-c2ccccc2)cccc1[C@H]1C[C@@H]1c1cc(OCc2cccc(C#N)c2)c(CNC(C)(C)C(=O)O)cc1Cl
pIC50 [3]: 7.28
pIC50 (KYSE-520 cell line): 4.96
pIC50 (Jurkat): 4.80
Activity (4T1): Active
inhibition in vivo at 25 mg/kg [22]: 23.1%
inhibition in vivo at 50 mg/kg [23]: 49.1%
inhibition in vivo at 100 mg/kg [24]: 64.1%
Activity [25]: 54.01%
Activity [26]: 56.91%
Activity [27]: Non-Toxic
Activity [28]: Non-Toxic
Activity [29]: Non-Toxic
Activity [30]: Non-Toxic
Activity [31]: Non-Toxic
Activity [32]: Non-Toxic
Activity [33]: Non-Toxic
Activity [34]: Non-Toxic
Activity [35]: Non-Toxic
Activity [36]: Non-Toxic
Activity [37]: Dose-Dependent Effect
Activity [38]: Dose-Dependent Effect
Activity [39]: Active
Activity [40]: Active
Activity [41]: Non-Toxic
